Some test systems named below: A498 renal; NCI/ADR-RES ovarian; 786-0 renal; DU-145 prostate; SF-268 CNS; CCRF-CEM leukemia; HCT-116 colon; RPMI-8226 leukemia; SF-539 CNS; LOX IMVI melanoma.
Experiment in all cases: growth of human tumour cells (NCI), 48 h

Values joined by “and” are separate entries in the source; they are usually repeats but may differ in a detail not shown here. Identical values can stand only once.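 Tested at 5 concentrations; 48 h exposure; 96-well plates; endpoints linearly interpolated, else capped at highest concentration. At the GI50, growth is halved. TGI marks complete inhibition of growth.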 Some results are limits rather than exact numbers.

On to `COc1ccc(OC)c2c(C)ccnc12`, for which the TGI was greater than 100 µM in the assay on A498 renal; 67.4 µM in the assay with NCI/ADR-RES ovarian; greater than 100 µM with 786-0 renal; greater than 100 µM with DU-145 prostate; greater than 97.2 µM in the assay on SF-268 CNS; greater than 29.8 µM with CCRF-CEM leukemia. Moreover, the TGI was greater than 100 µM with HCT-116 colon, greater than 100 µM in the assay on RPMI-8226 leukemia, greater than 68.7 µM with SF-539 CNS and 46.5 µM in the assay on LOX IMVI melanoma.
As to `C=CC(C)(C)/C=C/c1ccc(O)cc1`, the TGI with A498 renal, in the assay on NCI/ADR-RES ovarian, in the assay on 786-0 renal, in the assay on DU-145 prostate, in the assay with SF-268 CNS and in the assay on CCRF-CEM leukemia was greater than 100 µM throughout. Further, the TGI in the assay with HCT-116 colon is greater than 100 µM; in the assay on RPMI-8226 leukemia it was 70.1 µM; with SF-539 CNS, greater than 100 µM; in the assay on LOX IMVI melanoma it was 45.6 µM.
On to `Oc1ccc(Cl)cc1-c1cc(-c2ccccc2)nc(=S)[nH]1`, for which the TGI with A498 renal is greater than 100 µM; with NCI/ADR-RES ovarian, greater than 100 µM; in the assay with 786-0 renal it was 64 µM; in the assay on DU-145 prostate, greater than 100 µM; in the assay on SF-268 CNS it was 77.7 µM; in the assay with CCRF-CEM leukemia it was greater than 100 µM. The TGI in the assay on HCT-116 colon, in the assay on RPMI-8226 leukemia, in the assay on SF-539 CNS and in the assay on LOX IMVI melanoma was greater than 100 µM each time.
As for `CC(C)(C)OC(=O)C(C#N)C(=O)c1ccc(C(=O)O)[nH]1` (stereo unspecified), the TGI in the assay on A498 renal was 77.2 µM; in the assay on NCI/ADR-RES ovarian, 38.5 µM; in the assay with 786-0 renal it was greater than 100 µM; in the assay with DU-145 prostate, greater than 100 µM; in the assay on SF-268 CNS, greater than 100 µM; with CCRF-CEM leukemia, greater than 100 µM. Besides, the TGI with HCT-116 colon, in the assay on RPMI-8226 leukemia, in the assay with SF-539 CNS and in the assay on LOX IMVI melanoma was greater than 100 µM throughout.
Turning to `CCOC(=O)c1c(N2CCCC2)[nH]c(=O)c(C(c2ccc(N(C)C)cc2)c2c(O)c(C(=O)OCC)c(N3CCCC3)[nH]c2=O)c1O`, the TGI with A498 renal, in the assay with NCI/ADR-RES ovarian, with 786-0 renal, with DU-145 prostate, with SF-268 CNS and in the assay with CCRF-CEM leukemia was greater than 100 µM each time. The TGI in the assay on HCT-116 colon, in the assay on RPMI-8226 leukemia, in the assay with SF-539 CNS and in the assay on LOX IMVI melanoma was greater than 100 µM in each case.
Take `COc1cc(S(=O)(=O)Nc2ccc(-c3csc(N4C(=O)C(Cl)C4c4ccccc4O)n3)cc2)ccc1Cl` (stereo unspecified): the TGI in the assay on A498 renal was 0.948 µM; in the assay on NCI/ADR-RES ovarian, greater than 100 µM; in the assay on 786-0 renal it was greater than 100 µM; in the assay on DU-145 prostate, 66.6 µM; in the assay with SF-268 CNS, greater than 100 µM; in the assay with CCRF-CEM leukemia, 9.13 µM. The TGI in the assay on HCT-116 colon is greater than 100 µM; in the assay on RPMI-8226 leukemia, 83.9 µM; in the assay on SF-539 CNS, greater than 100 µM; in the assay on LOX IMVI melanoma, 3.56 µM.
On to `Nc1ccc2c(=O)cc(-c3ccc(Br)s3)[nH]c2n1`, for which the TGI in the assay with A498 renal was greater than 100 µM; in the assay on NCI/ADR-RES ovarian, greater than 26.9 µM; in the assay with 786-0 renal, greater than 100 µM; in the assay with DU-145 prostate, greater than 100 µM; in the assay with SF-268 CNS, greater than 100 µM; with CCRF-CEM leukemia it was greater than 100 µM. Also, the TGI was greater than 100 µM in the assay on HCT-116 colon, greater than 100 µM in the assay with RPMI-8226 leukemia, 6.02 µM with SF-539 CNS and greater than 100 µM with LOX IMVI melanoma.
Take `O=C1C(N2CCN(CCOCCO)CC2)=C(Cl)C(=O)c2ncccc21`: the figures for the GI50 in the assay with A498 renal, in the assay with CCRF-CEM leukemia and in the assay on HCT-116 colon were greater than 100 µM, 13.5 µM and 18.5 µM, respectively. The TGI was greater than 100 µM in the assay on A498 renal; greater than 100 µM in the assay on NCI/ADR-RES ovarian; 36 µM in the assay with 786-0 renal; greater than 100 µM with DU-145 prostate; 44.5 µM with SF-268 CNS; 4.44 µM and 35.9 µM in the assay on CCRF-CEM leukemia. Besides, the TGI in the assay on HCT-116 colon worked out at 33.5 µM; with RPMI-8226 leukemia it was 47.8 µM; with SF-539 CNS it was 44.6 µM; in the assay on LOX IMVI melanoma it was 26.7 µM.
Take `O=c1[nH]n(CCc2ccccc2CCl)c2ccc([N+](=O)[O-])cc12`: the TGI in the assay on A498 renal, with NCI/ADR-RES ovarian, in the assay on 786-0 renal, in the assay on DU-145 prostate, with SF-268 CNS and in the assay on CCRF-CEM leukemia was greater than 100 µM each time. Moreover, the TGI in the assay with HCT-116 colon, in the assay on RPMI-8226 leukemia, in the assay with SF-539 CNS and in the assay on LOX IMVI melanoma was greater than 100 µM in each case.
In the case of `COc1cccc(NC(=O)CC(=O)n2nc(-c3ccccc3)c(N=Nc3ccc(Cl)cc3)c2-c2ccccc2)c1`, the TGI with A498 renal is greater than 83.1 µM; with NCI/ADR-RES ovarian, 52.6 µM; with 786-0 renal, 64.4 µM; with DU-145 prostate, greater than 100 µM; in the assay with SF-268 CNS it was 49.4 µM; with CCRF-CEM leukemia it was greater than 39.6 µM. The TGI is 67 µM in the assay on HCT-116 colon, greater than 100 µM in the assay on RPMI-8226 leukemia, greater than 74.8 µM in the assay on SF-539 CNS and 38.4 µM in the assay with LOX IMVI melanoma.
Take `CSc1nnc(SCc2nn3c(=O)cc(C)nc3s2)s1`: the TGI with A498 renal, in the assay on NCI/ADR-RES ovarian, in the assay on 786-0 renal, with DU-145 prostate, in the assay with SF-268 CNS and with CCRF-CEM leukemia was greater than 100 µM each time. The TGI in the assay with HCT-116 colon, with RPMI-8226 leukemia, in the assay with SF-539 CNS and in the assay on LOX IMVI melanoma was greater than 100 µM in each case.
Take `CCOC(=O)C1CCC(=O)N1C(=O)c1cccc(Cl)c1` (stereo unspecified): the TGI with A498 renal, with NCI/ADR-RES ovarian, in the assay on 786-0 renal, with DU-145 prostate, in the assay on SF-268 CNS and in the assay on CCRF-CEM leukemia was greater than 100 µM each time. The TGI with HCT-116 colon, in the assay with RPMI-8226 leukemia, with SF-539 CNS and in the assay on LOX IMVI melanoma was greater than 100 µM throughout.
Take `O=c1[nH]c2ccccc2c(O)c1/C=N/C(=S)NC1CCCCC1`: the TGI with A498 renal, in the assay with NCI/ADR-RES ovarian, in the assay with 786-0 renal, in the assay on DU-145 prostate, in the assay on SF-268 CNS and with CCRF-CEM leukemia was greater than 100 µM in each case. For the same molecule, the TGI with HCT-116 colon, in the assay with RPMI-8226 leukemia, in the assay on SF-539 CNS and in the assay on LOX IMVI melanoma was greater than 100 µM in each case.
As for `COc1cc2c3c(n(C)c(=O)c2cc1OC)-c1cc2c(cc1/C3=C\CCCCCBr)OCO2`, the TGI with A498 renal was 46 µM; in the assay with NCI/ADR-RES ovarian it was greater than 100 µM; in the assay with 786-0 renal, greater than 100 µM; in the assay with DU-145 prostate, greater than 100 µM; in the assay on SF-268 CNS it was greater than 100 µM; in the assay with CCRF-CEM leukemia, 38.3 µM. The TGI in the assay on HCT-116 colon turned out to be 44.7 µM; in the assay with RPMI-8226 leukemia it was 26 µM; in the assay with SF-539 CNS, 89.8 µM; with LOX IMVI melanoma, 13.7 µM. In addition, the GI50 was 5.54 µM with DU-145 prostate, 6.14 µM in the assay with HCT-116 colon and 5.7 µM in the assay on SF-539 CNS.
Regarding `NC1CCCCC1NCCNC1CCCCC1N` (stereo unspecified), the TGI with A498 renal, with NCI/ADR-RES ovarian, in the assay with 786-0 renal, in the assay on DU-145 prostate, in the assay with SF-268 CNS and in the assay with CCRF-CEM leukemia was greater than 100 µM in each case. Also, the TGI with HCT-116 colon, with RPMI-8226 leukemia, with SF-539 CNS and in the assay on LOX IMVI melanoma was greater than 100 µM in each case.
Regarding `COc1cccc2c1OC1c3ccccc3OCC1(O)C2` (stereo unspecified), the TGI in the assay on A498 renal, with NCI/ADR-RES ovarian, in the assay on 786-0 renal, with DU-145 prostate, in the assay on SF-268 CNS and in the assay with CCRF-CEM leukemia was greater than 100 µM throughout. Besides, the TGI in the assay with HCT-116 colon, in the assay with RPMI-8226 leukemia, with SF-539 CNS and in the assay on LOX IMVI melanoma was greater than 100 µM throughout.
For the molecule `O=c1[nH]nc(-c2ccccc2)c2[nH]c3c(c12)Cc1ccccc1-3`, the TGI in the assay on A498 renal, in the assay on NCI/ADR-RES ovarian, in the assay with 786-0 renal, with DU-145 prostate, with SF-268 CNS and in the assay with CCRF-CEM leukemia was greater than 100 µM each time. For the same molecule, the TGI in the assay with HCT-116 colon is greater than 100 µM; in the assay on RPMI-8226 leukemia, greater than 28.4 µM; in the assay with SF-539 CNS it was greater than 28.3 µM; with LOX IMVI melanoma, greater than 100 µM.
As for `[N-]=[N+]=Nc1nc2ccccc2c(N=[N+]=[N-])c1Cl`, the TGI is 46.9 µM in the assay with A498 renal; greater than 100 µM with NCI/ADR-RES ovarian; greater than 100 µM in the assay on 786-0 renal; greater than 100 µM in the assay on DU-145 prostate; greater than 100 µM with SF-268 CNS; greater than 100 µM with CCRF-CEM leukemia. The TGI in the assay on HCT-116 colon, in the assay on RPMI-8226 leukemia, with SF-539 CNS and with LOX IMVI melanoma was greater than 100 µM throughout.
Take `O=C1C=CC(=O)c2c1ccc1c3ccccc3n(Cc3ccccc3)c21`: the TGI with A498 renal was 44.3 µM; in the assay on NCI/ADR-RES ovarian, greater than 68.4 µM; with 786-0 renal, 33.1 µM; with DU-145 prostate, greater than 100 µM; with SF-268 CNS, greater than 77.6 µM; with CCRF-CEM leukemia, 10.9 µM. Further, the TGI in the assay on HCT-116 colon is 51.9 µM; with RPMI-8226 leukemia, 34.6 µM; in the assay on SF-539 CNS, greater than 74.1 µM; in the assay on LOX IMVI melanoma, 52.3 µM.
As for `COc1ccc(-n2c(N)c(C#N)c(C#N)c2-c2ccco2)cc1`, the TGI in the assay on A498 renal, with NCI/ADR-RES ovarian, with 786-0 renal, in the assay with DU-145 prostate, in the assay on SF-268 CNS and in the assay on CCRF-CEM leukemia was greater than 100 µM in each case. In addition, the TGI with HCT-116 colon, in the assay with RPMI-8226 leukemia, in the assay with SF-539 CNS and in the assay on LOX IMVI melanoma was greater than 100 µM in each case.
In the case of `Cc1ccc(-n2nncc2[Si](C)(C)C)s1`, the TGI was greater than 100 µM in the assay on A498 renal; greater than 100 µM in the assay on NCI/ADR-RES ovarian; greater than 100 µM with 786-0 renal; greater than 100 µM in the assay with DU-145 prostate; greater than 100 µM with SF-268 CNS; 56.7 µM in the assay with CCRF-CEM leukemia. Moreover, the TGI with HCT-116 colon, with RPMI-8226 leukemia, in the assay with SF-539 CNS and with LOX IMVI melanoma was greater than 100 µM throughout.

The values above are taken from PubChem BioAssay (NCI).
